Reference: patent US9169252B2 (BRISTOL-MYERS SQUIBB COMPANY, priority 2014, dated 2015)
Like-named read-outs stand apart in the source and are kept apart here.

What was measured:
IRAK4 = IRAK4 (Homo sapiens (Human), UniProt Q9NWZ3); assay: IRAK4 Inhibition Assay; assay type: biochemical; settings: ATP 500 μM, read-out: IRAK4 IC50
Summary of the method: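 Mobility-shift readout: fluorescent substrate and phosphoproduct resolved electrophoretically on Caliper LabChip 3000 after EDTA quench (35 mM). Enzyme reaction of IRAK4, substrates and test compound ran 60 min at room temperature.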

[1] = test system: TLR2 induced IL-6 in peripheral blood mononuclear cells (PBMCs); assay: PBMC TLR2 Induced IL-6 Assay; assay type: cell-based, human; settings: IL-6 by ELISA; for EC50: read-out: Cell EC50; for IC50: read-out: Cell IC50
Summary of the method: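 Lipoteichoic acid at 10 µg/ml served as TLR2 stimulus for 5 hours, following a 30-minute compound pretreatment at 37° C. Cells were Ficoll-isolated human PBMCs, 250000 cells/well, cultured in RPMI plus 10% heat-inactivated FCS.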

[2] = Homo sapiens, PBMC, PBMC TLR2 Induced IL-6 Assay, lipoteichoic acid stimulation
[3] = Homo sapiens, PBMC, human PBMCs, lipoteichoic acid stimulated
[4] = PBMC TLR2 Induced IL-6 Assay, lipoteichoic acid stimulation

Sequence of IRAK4 (Q9NWZ3 whole entry, species assumed): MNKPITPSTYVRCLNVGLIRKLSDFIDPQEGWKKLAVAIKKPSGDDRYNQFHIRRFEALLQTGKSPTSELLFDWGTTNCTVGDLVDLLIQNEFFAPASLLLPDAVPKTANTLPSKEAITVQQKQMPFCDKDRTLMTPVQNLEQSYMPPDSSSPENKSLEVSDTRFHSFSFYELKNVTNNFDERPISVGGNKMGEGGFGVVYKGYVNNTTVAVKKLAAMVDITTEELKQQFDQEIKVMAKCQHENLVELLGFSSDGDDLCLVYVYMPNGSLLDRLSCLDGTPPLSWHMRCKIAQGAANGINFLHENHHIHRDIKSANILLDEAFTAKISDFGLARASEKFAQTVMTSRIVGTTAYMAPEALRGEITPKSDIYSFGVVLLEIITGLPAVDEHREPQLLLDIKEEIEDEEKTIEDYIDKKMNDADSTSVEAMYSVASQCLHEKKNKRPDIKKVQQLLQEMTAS

SMILES	IC50 (IRAK4; IRAK4 Inhibition Assay) [nM]	IC50 [1, 2] [nM]	EC50 [1, 2] [nM]	further results
Cn1nccc1Nc1cc(-n2ccc3cc(C#N)cnc32)ncc1C(=O)NC[C@@H](F)C(C)(C)O [Example 424]				IC50 (IRAK4; IRAK4 0.6 nM): 6 nM; EC50 ([1]; human PBMCs, lipoteichoic acid stimulated): 338 nM
CC(C)Nc1cc(-n2ncc3cc(C#N)cnc32)ncc1C(=O)NC[C@@H](F)C(O)(C1CC1)C1CC1 [Example 315]	10.7	267		
CC(C)Nc1cc(-n2ncc3cc(C#N)cnc32)ncc1C(=O)NCC(=O)N1CCOCC1 [Example 206]	14.4		86	
CC(C)(O)[C@H](F)CNC(=O)c1cnc(-n2ncc3cc(F)cnc32)cc1NC1CCC(F)C1 (single isomer, unassigned) [Example 618]				IC50 (IRAK4; IRAK4 0.6 nM): 5.8 nM; EC50 [1, 3]: 127 nM
CS(=O)(=O)[C@H]1CC[C@H](NC(=O)c2cnc(-n3ccc4cc(C#N)cnc43)cc2Nc2cccc(C(N)=O)c2)CC1 [Example 105, 4-((3-Carbamoylphenyl)amino)-6-(5-cyano-1H-pyrrolo[2,3-b]pyridin-1-yl)-N-((trans)-4-(methylsulfonyl)cyclohexyl)nicotinamide]	3.9		437	
CC(C)(O)[C@H](F)CNC(=O)c1cnc(-n2ncc3cc(C#N)c(N)nc32)cc1NC1CC1 [Example 631]				IC50 (IRAK4; IRAK4 0.6 nM): 3.4 nM; IC50 [1, 3]: 66 nM
CC(C)Nc1cc(-n2ccc3cc(CNC(=O)CC4CCCC4)cnc32)ncc1C(=O)NC[C@@H](F)C(C)(C)O [Example 504]				IC50 (IRAK4; IRAK4 0.6 nM): 4.3 nM; IC50 [1, 3]: 262 nM
CC(C)(O)[C@H](F)CNC(=O)c1cnc(-n2ncc3cc(C#N)cnc32)cc1NCc1cocn1 [Example 571]				IC50 (IRAK4; IRAK4 0.6 nM): 15.2 nM; IC50 [1, 3]: 101 nM
CC(C)Nc1cc(-n2ncc3cc(C#N)cnc32)ncc1C(=O)Nc1cnn(CC(C)(C)O)c1 [Example 304]	10.7	408		
CC(C)(CN)CNc1cc(-n2ncc3cc(C#N)cnc32)ncc1C(=O)NC[C@@H](F)C(C)(C)O [Example 585]				IC50 (IRAK4; IRAK4 0.6 nM): 8.5 nM; IC50 [1, 3]: 147 nM
CC(C)(O)[C@H](F)CNC(=O)c1cnc(-n2ccc3cc(Cl)cnc32)cc1NC1CCOCC1 [Example 32, (R)-6-(5-chloro-1H-pyrrolo[2,3-b]pyridin-1-yl)-N-(2-fluoro-3-hydroxy-3-methylbutyl)-4-((tetrahydro-2H-pyran-4-yl)amino) nicotinamide]	1.9	562	75	
CC(C)CCNC(=O)c1cnc(-n2ncc3cc(C#N)c(N)nc32)cc1NC(C)C [Example 303]	3.5	176		
CC(C)Nc1cc(-n2ccc3cc(CNC(=O)Cc4ccccc4)cnc32)ncc1C(=O)NC[C@@H](F)C(C)(C)O [Example 515]				IC50 (IRAK4; IRAK4 0.6 nM): 2.2 nM; IC50 [1, 3]: 542 nM
CC(C)Nc1cc(-n2ccc3cc(C#N)cnc32)ncc1C(=O)NC[C@@H](F)C(C)(C)O [Example 75, (R)-6-(5-cyano-1H-pyrrolo[2,3-b]pyridin-1-yl)-N-(2-fluoro-3-hydroxy-3-methylbutyl)-4-(isopropylamino)nicotinamide]	7.6	22		
CC(C)(O)[C@H]1CC[C@H](NC(=O)c2cnc(-n3ncc4cc(C#N)cnc43)cc2NC2COC2)CC1 [Example 555]				IC50 (IRAK4; IRAK4 0.6 nM): 7 nM; IC50 [1, 3]: 47 nM
CC(C)Nc1cc(-n2ncc3cc(C#N)c(N)nc32)ncc1C(=O)NCCC(C)(C)F [Example 307]	2	127		
CC(C)(O)[C@H](F)CNC(=O)c1cnc(-n2cnc3cc(Cl)cnc32)cc1Nc1cnn(CC(F)(F)F)c1 [Example 360]	1.5	376		
COCCn1cc(Nc2cc(-n3ncc4cc(Cl)cnc43)ncc2C(=O)NC[C@@H](F)C(C)(C)O)cn1 [Example 364]	2.6	83		
CC(CF)Nc1cc(-n2ccc3cncnc32)ncc1C(=O)NC[C@@H](F)C(C)(C)O (stereo partly drawn) [Example 113, N—((R)-2-Fluoro-3-hydroxy-3-methylbutyl)-4-((1-fluoropropan-2-yl)amino)-6-(7H-pyrrolo[2,3-d]pyrimidin-7-yl)nicotinamide]	1.9		222	

More lines, main results first:

IC50 (IRAK4; IRAK4 Inhibition Assay) [nM]	SMILES	IC50 [1, 2] [nM]	EC50 [1, 2] [nM]	further results
8.1	CC(O)CCNC(=O)c1cnc(-n2ncc3cc(C#N)cnc32)cc1NC(C)C (stereo not shown) [Example 238]		357	IC50 [1, 4]: 1810 nM
5.3	CC(O)CCNC(=O)c1cnc(-n2ncc3cc(C#N)cnc32)cc1NC(C)C (stereo not shown) [Example 239]			EC50 [1, 4]: 211 nM; IC50 [1, 4]: 775 nM
5.9	CC(C)Nc1cc(-n2ncc3cc(C#N)cnc32)ncc1C(=O)NCCC1(O)CCC(C)(O)CC1 (stereo not shown) [Example 277]	251		
1.6	CC(C)(O)c1cccc(Nc2cc(-n3ccc4cc(C#N)cnc43)ncc2C(=O)NC[C@@H](F)C(C)(C)O)c1 [Example 59, (R)-6-(5-cyano-1H-pyrrolo[2,3-b]pyridin-1-yl)-N-(2-fluoro-3-hydroxy-3-methylbutyl)-4-((3-(2-hydroxypropan-2-yl)phenyl)amino) nicotinamide]		153	
3.6	CC(C)Nc1cc(-n2ccc3cc(C#N)cnc32)ncc1C(=O)N[C@H]1CC[C@H](S(C)(=O)=O)CC1 [Example 102, 6-(5-Cyano-1H-pyrrolo[2,3-b]pyridin-1-yl)-4-(isopropylamino)-N-((trans)-4-(methylsulfonyl)cyclohexyl)nicotinamide]		47	
1.2	CCn1cc(Nc2cc(-n3ccc4cc(C#N)cnc43)ncc2C(=O)NC[C@@H](F)C(C)(C)O)cn1 [Example 372]	2		
3.9	CC(F)[C@H](C)Nc1cc(-n2ncc3cc(C#N)cnc32)ncc1C(=O)NC[C@@H](F)C(C)(C)O (single isomer, unassigned) [Example 203]			EC50 [1, 4]: 124 nM
2.1	CC(C)(O)[C@H](F)CNC(=O)c1cnc(-n2ccc3cc(C#N)cnc32)cc1Nc1ccc(-n2cncn2)cc1 [Example 68]		30	
5.3	CC(C)Nc1cc(-n2ncc3cc(F)cnc32)ncc1C(=O)NC[C@@H](F)C(C)(C)O [Example 157, (R)-6-(5-fluoro-1H-pyrazolo[3,4-b]pyridin-1-yl)-N-(2-fluoro-3-hydroxy-3-methylbutyl)-4-(isopropylamino) nicotinamide]		97	
1.5	CC(C)(O)[C@H](F)CNC(=O)c1cnc(-n2ccc3cc(C#N)cnc32)cc1NCC1(F)CCC1 [Example 65, (R)-6-(5-cyano-1H-pyrrolo[2,3-b]pyridin-1-yl)-N-(2-fluoro-3-hydroxy-3-methylbutyl)-4-(((1-fluorocyclobutyl)methyl)amino) nicotinamide]		100	
2	CC(C)Nc1cc(-n2ccc3cc(C#N)cnc32)ncc1C(=O)N[C@H]1CC[C@H](C(=O)NC2CC2)CC1 [Example 91, 6-(5-cyano-1H-pyrrolo[2,3-b]pyridin-1-yl)-N-((trans)-4-(cyclopropylcarbamoyl)cyclohexyl)-4-(isopropylamino)nicotinamide]		32	
6.8	COC1CCN(c2ccc(NC(=O)c3cnc(-n4ncc5cc(C#N)cnc54)cc3NC(C)C)cn2)CC1 [Example 247]		173	
3.4	CC[C@@H](C)Nc1cc(-n2ncc3cc(C#N)cnc32)ncc1C(=O)NCCC(C)(C)O [Example 193, (R)-4-(sec-Butylamino)-6-(5-cyano-1H-pyrazolo[3,4-b]pyridin-1-yl)-N-(3-hydroxy-3-methylbutyl)nicotinamide]	287		
